The values that follow come from patent US8835428B2, “Diacylglycerol acyltransferase inhibitors” (Piramal Enterprises Limited, priority 2008, dated 2014).

By inhibition is commonly meant how much of the control response was suppressed. A low value points to a weak effect.

The target of one assay is T1, hDGAT1 (Homo sapiens, UniProt O75907).
T1 construct: host or cells: Sf9 insect cells (baculovirus); microsomal preparation
T1 sequence (O75907 1-488): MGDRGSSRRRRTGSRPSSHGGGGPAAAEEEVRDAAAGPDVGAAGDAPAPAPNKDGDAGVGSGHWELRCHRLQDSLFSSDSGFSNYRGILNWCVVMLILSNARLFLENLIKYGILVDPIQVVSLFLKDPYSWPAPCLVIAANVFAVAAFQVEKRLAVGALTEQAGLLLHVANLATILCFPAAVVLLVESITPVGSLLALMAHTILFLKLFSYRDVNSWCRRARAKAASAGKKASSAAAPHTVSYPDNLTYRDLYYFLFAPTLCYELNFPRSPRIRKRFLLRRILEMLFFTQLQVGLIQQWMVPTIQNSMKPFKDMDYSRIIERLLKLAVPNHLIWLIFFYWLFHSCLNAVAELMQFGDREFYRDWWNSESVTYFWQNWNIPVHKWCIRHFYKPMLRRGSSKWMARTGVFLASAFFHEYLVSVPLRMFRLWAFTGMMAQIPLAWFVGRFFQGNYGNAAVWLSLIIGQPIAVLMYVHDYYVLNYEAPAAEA
The assay is described as follows: In-vitro DGAT1 assay (hDGAT1 microsomes from Sf9 cells, 14C oleoyl CoA, triglyceride formation). The assay is classed as biochemical. Conditions: At 1 μM. In short, it runs like this: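 Human DGAT1 in baculovirus-infected Sf9 microsomes (2.5–10 μg), [14C]oleoyl-CoA with 409.5, 1228.5 or 1638 μM 1,2-dioleoyl-sn-glycerol, Tris-HCl pH 7.4 buffer with BSA. Compounds screened at 10, 5 and 1 μM in duplicate. Reaction 10 min at 37 °C; heptane-extracted [14C]triglyceride counted by scintillation.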
As for “2-(3-(4-(Benzyloxy)phenyl)isoxazole-5-carboxamido)-3-methylbutanoic acid [Example 324]”, the “% inhibition of hDGAT1” value is given as “+ (>0% Inhibition ≦50)”. The molecule `CC(C)[C@H](NC(=O)c1cc(-c2ccc(NC(=O)Nc3ccc(OC(F)(F)F)cc3)cc2)no1)C(=O)O` [Example 187, (S)-3-methyl-2-(3-(4-(3-(4-(trifluoromethoxy)phenyl)ureido)phenyl)isoxazole-5-carboxamido)butanoic acid] came in with an inhibition at 1 µM of 75 to 100%. On the same count and under the same terms, to `COC(=O)[C@@H]1CCCN1C(=O)c1cc(-c2ccc(NC(=O)Nc3ccccc3F)cc2)no1` [Example 261, (S)-Methyl 1-(3-(4-(3-(2-fluorophenyl)ureido)phenyl)isoxazole-5-carbonyl)pyrrolidine-2-carboxylate] belongs 50 to 75%; to `Cc1ccc(Cl)c(NC(=O)Nc2ccc(-c3cc(C(=O)N[C@H](C(=O)O)C(C)C)on3)cc2)c1` [Example 189, (S)-2-(3-(4-(3-(2-chloro-5-methylphenyl)ureido)phenyl)isoxazole-5-carboxamido)-3-methylbutanoic acid], 75 to 100%. Still for that read-out and setting: in the case of `CSc1ccc(NC(=O)Nc2ccc(-c3cc(C(=O)N[C@H](C(=O)O)C(C)C)on3)cc2)cc1` [Example 197, (S)-3-methyl-2-(3-(4-(3-(4-(methylthio)phenyl)ureido)phenyl)isoxazole-5-carboxamido)butanoic acid] it was 75 to 100%.

The assay is the same for the next values; noted with them: At 5 μM.
For `COC(=O)[C@@H](NC(=O)c1nc(-c2ccc(NS(=O)(=O)c3ccc(F)cc3F)cc2)no1)C(C)C` [Example 350, (S)-methyl 2-(3-(4-(2,4-difluorophenylsulfonamido)phenyl)-1,2,4-oxadiazole-5-carboxamido)-3-methylbutanoate], the inhibition at 5 µM lay in the range of 0 to 50%. Consider `CC(C)C(NC(=O)c1cc(-c2ccc(NC(=O)Nc3cccc(F)c3)cc2)no1)C(=O)O` (centres unmarked) [Example 152, 2-(3-(4-(3-(3-fluorophenyl)ureido)phenyl)isoxazole-5-carboxamido)-3-methylbutanoic acid], for which the inhibition at 5 µM was in the range of 75 to 100%. On the same count and under the same terms, in the case of `COC(=O)[C@@H](NC(=O)c1nc(-c2ccc(NC(=S)Nc3ccccc3)cc2)no1)C(C)C` [Example 357, (S)-methyl 3-methyl-2-(3-(4-(3-phenylthioureido)phenyl)-1,2,4-oxadiazole-5-carboxamido)butanoate] it was 0 to 50%. Still for that read-out and setting: to `CC(C)[C@H](NC(=O)c1cc(-c2ccc(NC(=S)Nc3cccc(F)c3)cc2)no1)C(=O)O` [Example 268, (S)-2-(3-(4-(3-(3-fluorophenyl)thioureido)phenyl)isoxazole-5-carboxamido)-3-methylbutanoic acid] belongs 50 to 75%. On the same count and under the same terms, to `COC(=O)C(NC(=O)c1cc(-c2ccc(NC(=O)Nc3ccc(-c4cc(C(=O)NC(C(=O)OC)C(C)C)on4)cc3)cc2)no1)C(C)C` (centres unmarked) [Example 281, 2-({3-[4-(3-{4-[5-(1-Methoxycarbonyl-2-methyl-propylcarbamoyl)-isoxazol-3-yl]-phenyl}-ureido)-phenyl]-isoxazol-5-carbonyl}-amino)-3-methyl-butyric acid methyl ester] belongs 0 to 50%; to `CC(C)C(NC(=O)c1cc(-c2ccc(NC(=O)Nc3cccc(C(F)(F)F)c3)cc2)no1)C(=O)O` (centres unmarked) [Example 278, 3-Methyl-2-(3-(4-(3-(3-(trifluoromethyl)phenyl)ureido)phenyl)isoxazole-5-carboxamido)butanoic acid], 75 to 100%; to `COC(=O)[C@@H](NC(=O)c1cc(-c2ccc(NC(=S)Nc3cccc(F)c3)cc2)no1)C(C)C` [Example 267, (S)-methyl 2-(3-(4-(3-(3-fluorophenyl)thioureido)phenyl)isoxazole-5-carboxamido)-3-methylbutanoate], 0 to 50%. `CC(C)C(NC(=O)c1cc(-c2ccc(NC(=O)Nc3ccccn3)cc2)no1)C(=O)O` (centres unmarked) [Example 280, 3-methyl-2-(3-(4-(3-pyridin-2-ylureido)phenyl)isoxazole-5-carboxamido)butanoic acid] had an inhibition at 5 µM of 50 to 75%. Regarding `CC(C)[C@H](NC(=O)c1cc(-c2ccc(NC(=O)Nc3ccccc3F)cc2)no1)C(=O)OC(C)(C)C` [Example 300, (S)-tert-butyl 2-(3-(4-(3-(2-fluorophenyl)ureido)phenyl)isoxazole-5-carboxamido)-3-methylbutanoate], the inhibition at 5 µM was 50 to 75%.

The assay is the same for the next values; noted with them: At 10 μM.
Molecule `CC(C)C(NC(=O)c1cc(-c2ccc(NC(=O)Nc3ccc(F)cc3F)cc2)no1)C(=O)O` (centres unmarked) [Example 112, 2-(3-(4-(3-(2,4-Difluorophenyl)ureido)phenyl)isoxazole-5-carboxamido)-3-methylbutanoic acid] displayed an inhibition at 10 µM of 75 to 100%.

`COC(=O)[C@@H]1CCCN1C(=O)c1cc(-c2ccc(Nc3nc4ccc(F)cc4s3)cc2)no1` [Example 18, (S)-1-{3-[4-(6-Fluoro-benzothiazol-2-ylamino)-phenyl]-isoxazole-5-carbonyl}-pyrrolidine-2-carboxylic acid methyl ester] showed an inhibition at 10 µM of 50 to 75%. The same measure, in the same setting: in the case of `CC(C)[C@H](NC(=S)c1cc(-c2cccc(Nc3nc4ccc(F)cc4s3)c2)no1)C(=O)O` [Example 25, (S)-2-({3-[3-(6-Fluoro-benzothiazol-2-ylamino)-phenyl]-isoxazole-5-carbothioyl}-amino)-3-methyl-butyric acid] it was 0 to 50%; in that of `CC(C)C[C@H](NC(=O)c1cc(-c2ccc(NC(=O)NC3CCCCC3)cc2)no1)C(=O)O` [Example 83, (S)-2-({3-[4-(3-cyclohexyl-ureido)-phenyl]-isoxazole-5-carbonyl}-amino)-4-methyl-pentanoic acid], 50 to 75%; in that of `Cc1cc(-c2cc(C(=O)NC(CC(C)C)C(=O)O)on2)ccc1NC(=O)Nc1c(F)cccc1F` (centres unmarked) [Example 100, 2-(3-(4-(3-(2,6-Difluorophenyl)ureido)-3-methylphenyl)isoxazole-5-carboxamido)-4-methylpentanoic acid], 0 to 50%.

`COC(=O)C(NC(=O)c1cc(-c2ccc(NC(=O)Nc3ccc(F)cc3F)cc2C)no1)C(C)C` (centres unmarked) [Example 137, Methyl 2-(3-(4-(3-(2,4-difluorophenyl)ureido)-2-methylphenyl)isoxazole-5-carboxamido)-3-methylbutanoate] registered an inhibition at 10 µM of 0 to 50%. With `O=C(O)[C@@H](NC(=NO)c1cc(-c2ccc(Nc3nc4ccc(F)cc4s3)cc2)no1)c1ccccc1` [Example 57, (S)-({3-[4-(6-Fluoro-benzothiazol-2-ylamino)-phenyl]-N-hydroxy-isoxazole-5-carboximidoyl}-amino)-phenyl-acetic acid], the inhibition at 10 µM was 0 to 50%. Still for that read-out and setting: in the case of `CC(C)C[C@H](NC(=O)c1onc(-c2ccc(NC(=O)Nc3ccccc3)cc2)c1-c1ccccc1)C(=O)O` [Example 91, (S)-4-Methyl-2-({4-phenyl-3-[4-(3-phenyl-ureido)-phenyl]-isoxazole-5-carbonyl}-amino)-pentanoic acid] it was 0 to 50%; in that of `CC(C)[C@H](NC(=O)c1cc(-c2ccc(Nc3nc4ccc(F)cc4s3)cc2)no1)C(=O)O` [Example 44, (S)-2-({3-[4-(6-Fluoro-benzothiazol-2-ylamino)-phenyl]-isoxazole-5-carbonyl}-amino)-3-methyl-butyric acid], 75 to 100%. Same read-out and setting: to `Cc1ccc(NC(=O)Nc2ccc(F)cc2)cc1-c1cc(C(=O)NC(CC(C)C)C(=O)O)on1` (centres unmarked) [Example 132, 2-(3-(5-(3-(4-fluorophenyl)ureido)-2-methylphenyl)isoxazole-5-carboxamido)-4-methylpentanoic acid] belongs 0 to 50%; to `COC(=O)C(NC(=O)c1cc(-c2ccc(NC(=O)Nc3ccc(F)cc3F)cc2)no1)C(C)C` (centres unmarked) [Example 111, Methyl 2-(3-(4-(3-(2,4-difluorophenyl)ureido)phenyl)isoxazole-5-carboxamido)-3-methylbutanoate], 50 to 75%.

Turning to `COC(=O)[C@H](NC(=O)c1cc(-c2ccc(Nc3nc4ccc(F)cc4s3)cc2)no1)C(C)C` [Example 38, (R)-2-({3-[4-(6-Fluoro-benzothiazol-2-ylamino)-phenyl]-isoxazole-5-carbonyl}-amino)-3-methyl-butyric acid methyl ester], the inhibition at 10 µM is 50 to 75%. Still for that read-out and setting: in the case of `COC[C@H](NC(=S)c1cc(-c2ccc(Nc3nc4ccc(F)cc4s3)cc2)no1)C(=O)OC` [Example 14, (S)-2-({3-[4-(6-Fluoro-benzothiazol-2-ylamino)-phenyl]-isoxazole-5-carbothioyl}-amino)-3-methoxy-propionic acid methyl ester] it was 0 to 50%.

Take `Cc1ccc(NC(=O)Nc2ccc(-c3cc(C(=O)NC(C(=O)O)C(C)C)on3)cc2)cc1` (centres unmarked) [Example 126, 3-Methyl-2-(3-(4-(3-p-tolylureido)phenyl)isoxazole-5-carboxamido) butanoic acid]: the inhibition at 10 µM lay in the range of 75 to 100%. Same read-out and setting: in the case of `COC(=O)[C@H]1CSC(c2cc(-c3ccc(Nc4nc5ccc(F)cc5s4)cc3)no2)=N1` [Example 11, (S)-2-{3-[4-(6-Fluoro-benzothiazol-2-ylamino)-phenyl]-isoxazol-5-yl}-4,5-dihydro-thiazole-4-carboxylic acid methyl ester] it was 0 to 50%.
